Among the data in ChEMBL document CHEMBL4043234, “Anticancer efficacy of p-dodecylaminophenol against high-risk and refractory neuroblastoma cells in vitro and in vivo” (Bioorg Med Chem Lett, 2017) are inhibition of growth and Activity values, retold here.

Activity calls are given as the source filed them. No cut-off for these calls is given here.

Experiment [1] has as its system SK-N-AS. Kind of experiment: Growth inhibition of human SK-N-AS cells at 4 uM after 24 hrs by MTT assay relative to control. It counts as functional. Particulars: read-out: GI. In general terms: Formazan colour is commonly taken as a measure of viable cells.
In experiment [2] the test system is SK-N-AS. Kind of experiment: Growth inhibition of human SK-N-AS cells at 4 uM after 72 hrs by MTT assay relative to control. It counts as functional. Particulars: read-out: GI.
In experiment [3] the test system is SK-N-AS. Kind of experiment: Growth inhibition of human SK-N-AS cells at 1 uM after 72 hrs by MTT assay relative to control. Type of experiment: functional. To be noted: read-out: GI.
In experiment [4] the test system is SK-N-AS. Kind of experiment: Induction of apoptosis in human SK-N-AS cells assessed as caspase-3 activity at 4 uM after 8 to 24 hrs by CPP32 based colorimetric assay. Type of experiment: functional, cell-based.
The subject of experiment [5] is IMR-32. Kind of experiment: Induction of apoptosis in human IMR32 cells assessed as decrease in Bcl-2 mRNA expression level at 4 uM after 24 hrs by real-time PCR method relative to control. Type of experiment: functional. Details: scale not given: the % may be the effect or the level left. (In general: In qPCR the cycle at which signal appears reflects the starting amount.)

Experiment [6] concerns IMR-32. As to the kind of experiment: Growth inhibition of human IMR32 cells at 0.1 uM after 72 hrs by MTT assay relative to control. Type of experiment: functional. Particulars: IMR-32, 72 h, read-out: GI.
The subject of experiment [7] is SK-N-AS. As to the kind of experiment: Growth inhibition of human SK-N-AS cells at 1 uM after 24 hrs by MTT assay relative to control. Type of experiment: functional. To be noted: read-out: GI.
Experiment [8] deals with SK-N-AS. As to the kind of experiment: Cell cycle arrest in human SK-N-AS cells at 4 uM up to 72 hrs by propidium iodide staining based flow cytometry. Type of experiment: functional. Background: In flow cytometry, cells or beads pass a laser one at a time.
Experiment [9] relates to IMR-32. Kind of experiment: Reduction in N-myc mRNA expression level in human IMR32 cells at 4 uM after 8 hrs by real-time PCR method. It counts as functional, cell-based.
Experiment [10] has as its system IMR-32. Kind of experiment: Growth inhibition of human IMR32 cells at 0.01 uM after 72 hrs by MTT assay relative to control. Type of experiment: functional. To be noted: IMR-32, 72 h, read-out: GI.
The subject of experiment [11] is IMR-32. As to the kind of experiment: Growth inhibition of human IMR32 cells at 0.4 uM after 72 hrs by MTT assay relative to control. It counts as functional. To be noted: IMR-32, 72 h, read-out: GI.
For experiment [12], the system named is IMR-32. As to the kind of experiment: Induction of apoptosis in human IMR32 cells assessed as decrease in Bcl-2 mRNA expression level at 4 uM after 8 hrs by real-time PCR method. It counts as functional, cell-based.
Experiment [13] concerns SK-N-AS. Kind of experiment: Cell cycle arrest in human SK-N-AS cells assessed as accumulation at sub-G1 phase at 4 uM after 24 hrs by propidium iodide staining based flow cytometry. Type of experiment: functional.
Experiment [14] concerns IMR-32. Kind of experiment: Reduction in N-myc mRNA expression level in human IMR32 cells at 4 uM after 24 hrs by real-time PCR method relative to control. Details: scale not given: the % may be the effect or the level left. It counts as functional.
Experiment [15] has as its system IMR-32. As to the kind of experiment: Growth inhibition of human IMR32 cells at 0.1 uM after 24 hrs by MTT assay relative to control. Type of experiment: functional. Particulars: IMR-32, 24 h, read-out: GI.

On to `CCCCCCCCCCCC(=O)Nc1ccc(O)cc1`, for which the inhibition of growth at 4 µM in experiment [1] worked out at 22%; in experiment [2], 24%.

`CC1=C(/C=C/C(C)=C/C=C/C(C)=C/C(=O)O)C(C)(C)CCC1` [TRETINOIN]: the inhibition of growth at 1 µM in experiment [3] was 3%; in experiment [7], 0%. Besides, the result in experiment [4], in experiment [9] and in experiment [12] was inactive. Besides, the Activity in experiment [5] was 67%; in experiment [14], 13%. The inhibition of growth at 0.1 µM turned out to be 60% in experiment [6] and 9% in experiment [15]. Moreover, the outcome in [8] and in [13] was Active. The inhibition of growth at 0.01 µM in [10] turned out to be 47%. Besides, in experiment [11], the inhibition of growth at 0.4 µM was found to be 65%.

On to `CCCCCCCCCCNc1ccc(O)cc1`, for which the inhibition of growth at 1 µM was found to be 60% in experiment [3] and 44% in [7].
